Data as given in patent publication US20040131545A1, “Amyloid plaque aggregation inhibitors and diagnostic imaging agents” (Trustees of the University of Pennsylvania, priority 2001, published 2004).
Blank lines part the entries; values can stand above or below the compound they belong to.

What was measured:
aggregates of Aβ(1-40) = target: T1, aggregates of Aβ(1-40) (Homo sapiens, UniProt P05067); experiment: Inhibition of [125I]3 binding to aggregated Aβ(1-40) peptide in solution; details: 25° C.; mean±SEM of three independent experiments; read-out: Inhibition constants (Ki) on ligand binding to aggregates of Aβ(1-40) vs [^125I]3
T1 construct: The solid forms of peptides Aβ(1-40) and Aβ(1-42) were purchased; purchased Bachem (King of Prussia, Pa.)
Procedure: (§1) The solid forms of peptides Aβ(1-40) and Aβ(1-42) were purchased from Bachem (King of Prussia, Pa.). Aggregation of peptides were carried out by gently dissolving the peptide [0.5 mg/mL for Aβ(1-40) and 0.25 mg/mL for Aβ (1-42) in a buffer solution (pH 7.4) containing 10 mM sodium phosphate and 1 mM EDTA. The solutions were incubated at 37° C. for 36-42 h with gentle and constant shaking. Binding studies were carried out in 12×75 mm borosilicate glass tubes according to the procedure described with some modifications (Klunk, W. E., et al., Biol. Psychiatry 35:627 (1994)). Aggregated fibrils (10-50 nM in the final assay mixture) were added to the mixture containing […] of radioligands (0.01-0.5 nM) in 40% EtOH and 10% EtOH in a final volume of 1 mL for saturation studies. […] For inhibition studies, 1 mL of the reaction mixture contained […] of inhibitors (10-5-10-10 M in 10% EtOH) and 0.05 nM radiotracer in 40% EtOH. The mixture was incubated at room temperature for 3 h and the bound and the free radioactivity were separated by vacuum filtration through Whatman GF/B filters using a Brandel M-24R cell harvester followed by 2×3 mL washes of 10% ethanol at room temperature. Filters containing the bound I-125 ligand were counted in a gamma counter (Packard 5000) with 70% counting efficiency. The results of saturation and inhibition experiments were subjected to nonlinear regression analysis using software EBDA52 by which Kd and Ki values were calculated.
(§2) Values are the mean±SEM of three independent experiments, each in duplicates.

fibrillar AP aggregates = fibrillar AP aggregates (Homo sapiens, UniProt P05067); details: Mathis et al. 1997; read-out: inhibition constants (K′) for binding to fibrillar AP aggregates; cited from earlier work
aggregates of Aβ(1-42) = target: T2, aggregates of Aβ(1-42) (Homo sapiens, UniProt P05067); experiment: Inhibition of [125I]3 binding to aggregated Aβ(1-42) peptide in solution; details: 25° C.; mean±SEM of three independent experiments; read-out: Inhibition constants (Ki) on ligand binding to aggregates of Aβ(1-42) vs [^125I]3
T2 construct: The solid forms of peptides Aβ(1-40) and Aβ(1-42) were purchased; purchased Bachem (King of Prussia, Pa.)
Procedure: as §1, §2

[1] = Partition coefficient determination (1-octanol/buffer); format: physicochemical; details: 1-octanol / 0.1 M phosphate buffer pH 7.4, [125I]tracer
Procedure: The test tube was vortexed for 3 min at room temperature, followed by centrifugation for 5 min. Two weighed samples (0.5 g each) from the 1-octanol and buffer layers were counted in a well counter. The partition coefficient was determined by calculating the ratio of cpm/g of 1-octanol to that of buffer. Samples from the 1-octanol layer were re-partitioned until consistent partitions of coefficient values were obtained. The measurement was done in triplicate and repeated three times.

[2] = In vivo biodistribution in normal mice after iv injection; design: species or system ICR mice; details: for Initial brain uptake / time at which brain uptake peaked / maximum brain uptake: mice; for Initial brain uptake: after an iv injection; for time at which brain uptake peaked / maximum brain uptake / Blood / Brain / Heart / Liver: iv; for maximum brain uptake: peak at 60 min; for Blood / Brain / Heart / Liver: normal mice
Procedure: While under ether anesthesia, 0.15 mL of a saline solution containing labeled agents ([…]) was injected directly into the tail vein of ICR mice (2-3 month-old, average weight 20-30 g). The mice were sacrificed by cardiac excision at various time points post injection. The organs of interest were removed and weighed, and the radioactivity was counted with an automatic gamma counter (Packard 5000). The percentage dose per organ was calculated by a comparison of the tissue counts to suitably diluted aliquots of the injected material. Total activities of blood and muscle were calculated under the assumption that they were 7% and 40% of the total body weight, respectively.

T1 sequence (P05067 672-711 limits assumed): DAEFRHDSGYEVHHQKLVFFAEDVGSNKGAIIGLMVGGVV
T2 sequence (P05067 672-713 limits assumed): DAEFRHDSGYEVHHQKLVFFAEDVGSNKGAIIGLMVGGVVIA
Sequence of fibrillar AP aggregates (P05067 672-711): as the sequence (P05067 672-711 limits assumed) above

- Ki (aggregates of Aβ(1-40)): 5.4 ± 0.7 nM
- Partition Coefficient (PC) [1]: 312
- Initial brain uptake [2]: 1.50 % dose/organ
- time at which brain uptake peaked [2]: 60 min
- maximum brain uptake [2]: 1.89 % dose/organ
- Ki (aggregates of Aβ(1-42)): 6.4 ± 0.7 nM
Structure (SMILES): CN1CCN(c2ccc(-c3nc4ccc(I)cc4s3)cc2)CC1 [Compound 6a, 2-[4′-(4″-Methylpiperazin-1-yl)-phenyl]-6-iodobenzothiazole]

- Blood ([2]; 2 min): 8.02 ± 0.82 % dose/organ
- Brain ([2]; 2 min): 1.50 ± 0.10 % dose/organ
- Heart ([2]; 2 min): 2.19 ± 0.43 % dose/organ
- Liver ([2]; 2 min): 28.84 ± 3.77 % dose/organ
- Blood ([2]; 30 min): 5.15 ± 0.23 % dose/organ
- Brain ([2]; 30 min): 1.59 ± 0.19 % dose/organ
- Heart ([2]; 30 min): 0.69 ± 0.02 % dose/organ
- Liver ([2]; 30 min): 21.22 ± 5.86 % dose/organ
- Blood ([2]; 60 min (1 hr)): 4.16 ± 0.28 % dose/organ
- Brain ([2]; 60 min (1 hr)): 1.89 ± 0.43 % dose/organ
- Heart ([2]; 60 min (1 hr)): 0.66 ± 0.06 % dose/organ
- Liver ([2]; 60 min (1 hr)): 17.20 ± 2.49 % dose/organ
- Blood ([2]; 6 h): 1.49 ± 0.26 % dose/organ
- Brain ([2]; 6 h): 1.08 ± 0.08 % dose/organ
- Heart ([2]; 6 h): 0.22 ± 0.06 % dose/organ
- Liver ([2]; 6 h): 5.79 ± 1.24 % dose/organ
- Blood ([2]; 24 h): 0.41 ± 0.09 % dose/organ
- Brain ([2]; 24 h): 0.91 ± 0.08 % dose/organ
- Heart ([2]; 24 h): 0.08 ± 0.01 % dose/organ
- Liver ([2]; 24 h): 3.05 ± 0.87 % dose/organ
Structure (SMILES): CN1CCN(c2ccc(-c3nc4ccc([125I])cc4s3)cc2)CC1 [[^125I] Compound 6a]

- Ki (aggregates of Aβ(1-40)): 0.9 ± 0.2 nM
- Partition Coefficient (PC) [1]: 70
- Initial brain uptake [2]: 0.67 % dose/organ
- time at which brain uptake peaked [2]: 60 min
- maximum brain uptake [2]: 1.57 % dose/organ
- Ki (aggregates of Aβ(1-42)): 2.2 ± 0.4 nM
Structure (SMILES): CN(C)c1ccc(-c2nc3ccc(I)cc3s2)cc1 [Compound 3, 2-(4′-Dimethylaminophenyl)-6-iodobenzothiazole]

- Ki (aggregates of Aβ(1-40)): 1.6 ± 0.5 nM
- Ki (aggregates of Aβ(1-42)): 5 ± 0.8 nM
Structure (SMILES): CN1CCN(c2ccc(-c3nc4ccc(Br)cc4s3)cc2)CC1 [Compound 4, 2-[4′-(4″-Methylpiperazin-1-yl)-phenyl]-6-bromobenzothiazole]

Further lines, the compound ahead of its results:

Structure (SMILES): O=C(O)c1cc(/N=N/c2ccc(-c3ccc(/N=N/c4ccc(O)c(C(=O)O)c4)cc3)cc2)ccc1O [Chrysamine G, reference compound]
- Ki (aggregates of Aβ(1-40)): > 1000 nM
- Ki (fibrillar AP aggregates): 370 nM
- Ki (aggregates of Aβ(1-42)): > 2000 nM

Structure (SMILES): CN(C)c1ccc(-c2nc3ccc([125I])cc3s2)cc1 [[^125I] Compound 3]
- Blood ([2]; 2 min): 15.74 ± 6.06 % dose/organ
- Brain ([2]; 2 min): 0.67 ± 0.11 % dose/organ
- Heart ([2]; 2 min): 1.79 ± 0.39 % dose/organ
- Liver ([2]; 2 min): 31.62 ± 2.38 % dose/organ
- Blood ([2]; 30 min): 3.26 ± 0.05 % dose/organ
- Brain ([2]; 30 min): 0.97 ± 0.29 % dose/organ
- Heart ([2]; 30 min): 0.20 ± 0.01 % dose/organ
- Liver ([2]; 30 min): 10.93 ± 2.34 % dose/organ
- Blood ([2]; 60 min (1 hr)): 3.79 ± 0.19 % dose/organ
- Brain ([2]; 60 min (1 hr)): 1.57 ± 0.24 % dose/organ
- Heart ([2]; 60 min (1 hr)): 0.17 ± 0.02 % dose/organ
- Liver ([2]; 60 min (1 hr)): 9.21 ± 3.05 % dose/organ
- Blood ([2]; 6 h): 1.44 ± 0.05 % dose/organ
- Brain ([2]; 6 h): 0.65 ± 0.11 % dose/organ
- Heart ([2]; 6 h): 0.05 ± 0.01 % dose/organ
- Liver ([2]; 6 h): 1.52 ± 0.30 % dose/organ
- Blood ([2]; 24 h): 0.29 ± 0.09 % dose/organ
- Brain ([2]; 24 h): 0.04 ± 0.01 % dose/organ
- Heart ([2]; 24 h): 0.01 ± 0.00 % dose/organ
- Liver ([2]; 24 h): 0.30 ± 0.07 % dose/organ

Structure (SMILES): CN(C)c1ccc(-c2nc3ccc(Br)cc3s2)cc1 [Compound 1, 2-(4′-Dimethylaminophenyl)-6-bromobenzothiazole]
- Ki (aggregates of Aβ(1-40)): 1.9 ± 0.3 nM
- Ki (aggregates of Aβ(1-42)): 0.8 ± 0.3 nM
